For one test, the target named is human CB1 receptor (Homo sapiens, UniProt P21554). The test is described as follows: cell-based.
Another test concerns the target T1, rat CB2 receptor (Rattus norvegicus, UniProt Q9QZN9).
T1 sequence (Q9QZN9 1-360): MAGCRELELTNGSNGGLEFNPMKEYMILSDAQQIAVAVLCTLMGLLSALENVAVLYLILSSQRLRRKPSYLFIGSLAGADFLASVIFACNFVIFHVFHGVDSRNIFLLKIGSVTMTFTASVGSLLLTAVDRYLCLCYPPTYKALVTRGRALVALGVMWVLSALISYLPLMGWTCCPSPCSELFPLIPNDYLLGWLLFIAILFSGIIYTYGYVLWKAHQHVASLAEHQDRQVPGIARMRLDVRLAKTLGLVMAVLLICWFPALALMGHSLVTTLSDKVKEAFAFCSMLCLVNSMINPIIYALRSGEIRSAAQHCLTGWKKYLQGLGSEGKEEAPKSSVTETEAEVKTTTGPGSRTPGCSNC
The test is described as follows: cell-based. It counts as cell-based.

[1] abbreviates: asterisk at the compound number.

The term EC50 denotes the concentration that produces a half-maximal response. Low values mean higher potency in that assay, high ones lower potency in that assay.

human CB1 receptor, sequence (P21554 whole entry): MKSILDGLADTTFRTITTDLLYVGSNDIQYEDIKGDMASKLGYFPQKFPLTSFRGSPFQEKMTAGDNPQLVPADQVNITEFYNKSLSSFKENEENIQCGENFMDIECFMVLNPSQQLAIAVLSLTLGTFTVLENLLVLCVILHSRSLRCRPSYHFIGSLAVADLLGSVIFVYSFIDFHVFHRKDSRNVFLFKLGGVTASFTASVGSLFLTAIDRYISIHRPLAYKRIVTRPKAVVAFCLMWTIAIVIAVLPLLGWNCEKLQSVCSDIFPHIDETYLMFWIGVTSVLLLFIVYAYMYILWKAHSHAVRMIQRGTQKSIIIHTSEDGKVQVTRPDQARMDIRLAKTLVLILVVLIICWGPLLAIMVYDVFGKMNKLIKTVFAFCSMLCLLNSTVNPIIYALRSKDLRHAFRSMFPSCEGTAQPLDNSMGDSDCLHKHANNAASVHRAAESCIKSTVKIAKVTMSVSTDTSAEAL

With `COCC1CCCCN1C(=O)c1cnc2c(c1)N(S(=O)(=O)c1ccc(C(F)(F)F)cc1)CCO2` (racemic) [Example 74, +/− (2-(methoxymethyl)-piperidin-1-yl)(1-(4-(trifluoromethyl)phenylsulf-onyl)-2,3-dihydro-1H-pyrido[2,3-b][1,4]oxazin-7-yl)methanone], the EC50 was over 30 µM on human CB1 receptor and at most 30 nM on rat CB2 receptor.

`COCCCNC(=O)c1cnc2c(c1)N(S(=O)(=O)c1ccc(F)cc1)CCO2` [Example 12]: the results for the EC50 at human CB1 receptor and at rat CB2 receptor were over 30 µM and at most 30 nM, respectively.

With `CC(C)(C)NC(=O)c1cnc2c(c1)N(S(=O)(=O)c1cccc(F)c1)CCO2` [Example 20, N-tert-butyl-1-(3-fluorophenylsulfonyl)-2,3-dihydro-1H-pyrido[2,3-b][1,4]oxazine-7-carboxamide], the EC50 was over 30 µM on human CB1 receptor and at most 30 nM on rat CB2 receptor.

As to `O=C(NC1CCCC1)c1cnc2c(c1)N(S(=O)(=O)c1cccc(F)c1)CCO2` [Example 21, N-cyclopentyl-1-(3-fluorophenylsulfonyl)-2,3-dihydro-1H-pyrido[2,3-b][1,4]oxazine-7-carboxamide], the EC50 on human CB1 receptor is over 30 µM; at rat CB2 receptor, at most 30 nM.

As to `CC(C)(C)NC(=O)c1cnc2c(c1)N(S(=O)(=O)c1ccccc1F)CCO2` [Example 22, N-tert-butyl-1-(2-fluorophenylsulfonyl)-2,3-dihydro-1H-pyrido[2,3-b][1,4]oxazine-7-carboxamide], the EC50 is over 30 µM at human CB1 receptor and at most 30 nM at rat CB2 receptor.

Consider `O=C(NC1CCCC1)c1cnc2c(c1)N(S(=O)(=O)c1ccccc1F)CCO2` [Example 23, N-cyclopentyl-1-(2-fluorophenylsulfonyl)-2,3-dihydro-1H-pyrido[2,3-b][1,4]oxazine-7-carboxamide], for which the EC50 was over 30 µM on human CB1 receptor and at most 30 nM on rat CB2 receptor.

Consider `CC(C)(C)NC(=O)c1cnc2c(c1)N(S(=O)(=O)c1ccc(C(F)(F)F)cc1)CCO2` [Example 26, N-tert-butyl-1-(4-(trifluoromethyl)phenylsulf-onyl)-2,3-dihydro-1H-pyrido[2,3-b][1,4]oxazine-7-carboxamide], for which the EC50 on human CB1 receptor was over 30 µM; on rat CB2 receptor it was at most 30 nM.

`O=C(NC1CCCC1)c1cnc2c(c1)N(S(=O)(=O)c1ccc(C(F)(F)F)cc1)CCO2` [Example 27, N-cyclopentyl-1-(4-(trifluoromethyl)phenylsulf-onyl)-2,3-dihydro-1H-pyrido[2,3-b][1,4]oxazine-7-carboxamide]: the results for the EC50 on human CB1 receptor and on rat CB2 receptor were over 30 µM and at most 30 nM, respectively.

Consider `O=C(NCC1CC1)c1cnc2c(c1)N(S(=O)(=O)c1ccc(Cl)cc1)CCO2` [Example 33, 1-(4-chlorophenyl-sulfonyl)-N-(cyclopropyl-methyl)-2,3-dihydro-1H-pyrido[2,3-b][1,4]oxazine-7-carboxamide], for which the EC50 was over 30 µM at human CB1 receptor and at most 30 nM at rat CB2 receptor.

Regarding `CN(C(=O)c1cnc2c(c1)N(S(=O)(=O)c1ccc(C(F)(F)F)cc1)CCO2)C(C)(C)C` [Example 40, N-tert-butyl-N-methyl-1-(4-(trifluoromethyl)-phenylsulfonyl)-2,3-dihydro-1H-pyrido[2,3-b][1,4]oxazine-7-carboxamide], the values for the half-maximal effective concentration (EC50) on human CB1 receptor and at rat CB2 receptor were over 30 µM and at most 30 nM, respectively.

Consider `COCCN(C(=O)c1cnc2c(c1)N(S(=O)(=O)c1ccc(C(F)(F)F)cc1)CCO2)C(C)(C)C` [Example 43, N-tert-butyl-N-(2-methoxyethyl)-1-(4-(trifluoromethyl)phenylsulf-onyl)-2,3-dihydro-1H-pyrido[2,3-b][1,4]oxazine-7-carboxamide], for which the “inverse agonist mark, human CB1 receptor” value on human CB1 receptor (setting [1]) is 11, 24, 25, 42, 43*, 67, 117*, 121, 124, 131, 132, 148, 150, 151,. This molecule also came in with an EC50 on rat CB2 receptor of at most 30 nM.

For the molecule `CC(C)(CN1CCOCC1)NC(=O)c1cnc2c(c1)N(S(=O)(=O)c1ccc(C(F)(F)F)cc1)CCO2` [Example 46, N-(2-methyl-1-morpholinopropan-2-yl)-1-(4-(trifluoromethyl)phenylsulfonyl)-2,3-dihydro-1H-pyrido[2,3-b][1,4]oxazine-7-carboxamide], the concentration for a half-maximal effect (EC50) on human CB1 receptor was over 30 µM; at rat CB2 receptor it was at most 30 nM.

Consider `CC(C)(C)NC(=O)c1cnc2c(c1)N(S(=O)(=O)c1ccc(OC(F)(F)F)cc1)CCO2` [Example 48, N-tert-butyl-1-(4-(trifluoromethoxy)phenyl-sulfonyl)-2,3-dihydro-1H-pyrido[2,3-b][1,4]oxazine-7-carboxamide], for which the results for the EC50 on human CB1 receptor and on rat CB2 receptor were over 30 µM and at most 30 nM, respectively.

Take `Cc1ccc(S(=O)(=O)N2CCOc3ncc(C(=O)NC(C)(C)C)cc32)s1` [Example 59, N-tert-butyl-1-(5-methylthiophen-2-ylsulfonyl)-2,3-dihydro-1H-pyrido[2,3-b][1,4]oxazine-7-carboxamide]: the EC50 on human CB1 receptor is over 30 µM; on rat CB2 receptor, at most 30 nM.

As to `CCC(CO)(CO)NC(=O)c1cnc2c(c1)N(S(=O)(=O)c1ccc(C(F)(F)F)cc1)CCO2` [Example 64, N-(1-hydroxy-2-(hydroxymethyl)butan-2-yl)-1-(4-(trifluoromethyl)phenylsulf-onyl)-2,3-dihydro-1H-pyrido[2,3-b][1,4]oxazine-7-carboxamide], the EC50 on human CB1 receptor is over 30 µM; on rat CB2 receptor, at most 30 nM.

`CC(C)(C)CC(C)(C)NC(=O)c1cnc2c(c1)N(S(=O)(=O)c1ccc(C(F)(F)F)cc1)CCO2` [Example 65, 1-(4-(trifluoromethyl)-phenylsulfonyl)-N-(2,4,4-trimethylpentan-2-yl)-2,3-dihydro-1H-pyrido[2,3-b][1,4]oxazine-7-carboxamide]: the values for the 50% effective concentration (EC50) on human CB1 receptor and on rat CB2 receptor were over 30 µM and at most 30 nM, respectively.

At rat CB2 receptor, `CC(C)(CO)NC(=O)c1cnc2c(c1)N(S(=O)(=O)N1CCC(C(F)(F)F)CC1)CCO2` [Example 152, N-(1-hydroxy-2-methylpropan-2-yl)-1-(4-(trifluoromethyl)piperidin-1-ylsulfonyl)-2,3-dihydro-1H-pyrido[2,3-b][1,4]oxazine-7-carboxamide] came in with a concentration giving a half-maximal response (EC50) of at most 30 nM.

Molecule `CC(C)(CO)CNC(=O)c1cnc2c(c1)N(S(=O)(=O)N1CCC(C(F)(F)F)CC1)CCO2` [Example 155, N-(3-hydroxy-2,2-dimethylpropyl)-1-(4-(trifluoromethyl)piperidin-1-ylsulfonyl)-2,3-dihydro-1H-pyrido[2,3-b][1,4]oxazine-7-carboxamide] had an EC50 at rat CB2 receptor of at most 30 nM.

`CC(C)(CO)NC(=O)c1cnc2c(c1)N(S(=O)(=O)N1CCC(F)(F)CC1)CCO2` [Example 157, 1-(4,4-difluoropiperidin-1-ylsulfonyl)-N-(1-hydroxy-2-methylpropan-2-yl)-2,3-dihydro-1H-pyrido[2,3-b][1,4]oxazine-7-carboxamide] had a half-maximal effective concentration (EC50) at rat CB2 receptor of at most 30 nM.

At rat CB2 receptor, `CC(C)(C)NC(=O)c1cnc2c(c1)N(S(=O)(=O)N1CCC(F)(F)C1)CCO2` [Example 163, N-tert-butyl-1-(3,3-difluoropyrrolidin-1-ylsulfonyl)-2,3-dihydro-1H-pyrido[2,3-b][1,4]oxazine-7-carboxamide] displayed an EC50 of at most 30 nM.

In turn, `CCC(C)(C)NC(=O)c1cnc2c(c1)N(S(=O)(=O)N1CCC(F)(F)C1)CCO2` [Example 164, 1-(3,3-difluoropyrrolidin-1-ylsulfonyl)-N-tert-pentyl-2,3-dihydro-1H-pyrido[2,3-b][1,4]oxazine-7-carboxamide] had an EC50 on rat CB2 receptor of at most 30 nM.

`CC(C)(CO)NC(=O)c1cnc2c(c1)N(S(=O)(=O)N1CCC(F)CC1)CCO2` [Example 168, 1-(4-fluoropiperidin-1-ylsulfonyl)-N-(1-hydroxy-2-methylpropan-2-yl)-2,3-dihydro-1H-pyrido[2,3-b][1,4]oxazine-7-carboxamide]: at rat CB2 receptor, the EC50 is at most 30 nM.

At rat CB2 receptor, `CC1CCN(S(=O)(=O)N2CCOc3ncc(C(=O)NCC(C)(C)CO)cc32)CC1` [Example 173, N-(3-hydroxy-2,2-dimethylpropyl)-1-(4-methylpiperidin-1-ylsulfonyl)-2,3-dihydro-1H-pyrido[2,3-b][1,4] oxazine-7-carboxamide] gave an EC50 of at most 30 nM.

In turn, `CC(C)(C)NC(=O)c1cnc2c(c1)N(S(=O)(=O)N1Cc3ccccc3C1)CCO2` [Example 183, N-tert-butyl-1-(isoindolin-2-ylsulfonyl)-2,3-dihydro-1H-pyrido[2,3-b][1,4]oxazine-7-carboxamide] had an EC50 on rat CB2 receptor of at most 30 nM.

For `COC(=O)C1(NC(=O)c2cnc3c(c2)N(S(=O)(=O)c2ccc(Cl)c(Cl)c2)CCO3)CCOCC1` [Example 205, methyl 4-(1-(3,4-dichlorophenylsulfonyl)-2,3-dihydro-1H-pyrido[2,3-b][1,4]oxazine-7-carboxamido)tetrahydro-2H-pyran-4-carboxylate], the EC50 at rat CB2 receptor was at most 30 nM.

Turning to `CC(C)(C)NC(=O)c1noc(-c2cnc3c(c2)N(S(=O)(=O)c2ccc(F)cc2)CCO3)n1` [Example 214, N-tert-butyl-5-(1-(4-fluoro-phenylsulfonyl)-2,3-dihydro-1H-pyrido[2,3-b][1,4]oxazin-7-yl)-1,2,4-oxadiazole-3-carboxamide], the “inverse agonist mark, rat CB2 receptor” value at rat CB2 receptor (setting [1]) is recorded as 181, 188, 189, 190, 195, 200, 201, 202, 204, 211*, 214*, 220, 221,.

`COCCCNC(=O)c1noc(-c2cnc3c(c2)N(S(=O)(=O)c2ccc(F)cc2)CCO3)n1` [Example 216, 5-(1-(4-fluorophenylsulfonyl)-2,3-dihydro-1H-pyrido[2,3-b] [1,4]oxazin-7-yl)-N-(3-methoxypropyl)-1,2,4-oxadiazole-3-carboxamide] yielded a 50% effective concentration (EC50) on rat CB2 receptor of at most 30 nM.

As for `O=S(=O)(c1ccc(F)cc1)N1CCOc2ncc(-c3nc4ncccc4o3)cc21` [Example 217], the EC50 on rat CB2 receptor was at most 30 nM.

`O=S(=O)(c1ccc(C(F)(F)F)cc1)N1CCOc2ncc(-c3ncc(-c4ccccc4)o3)cc21` [Example 227, 7-(5-phenyloxazol-2-yl)-1-(4-(trifluoromethyl)phenyl-sulfonyl)-2,3-dihydro-1H-pyrido[2,3-b][1,4]oxazine] yielded a half-maximal effective concentration (EC50) on rat CB2 receptor of at most 30 nM.

Values taken from patent US7960377B2 (priority 2008, dated 2011).
